Experimental data published in patent US20130338092A1, “COMPOUNDS AND METHODS FOR TARGETING LEUKEMIC STEM CELLS” (The Broad Institute, Inc., priority 2011, published 2013).
Entries after “also recorded” stand apart in the source; their conditions may differ.

Experiments:
Assay type in all cases: cell-based, murine
[1] = test system: primary leukemia cells; assay: Gene expression profiling with GSEA; conditions: 5 μM, 6 hours in suspension
Protocol: To elucidate potential cell-autonomous effects of BRD7116, primary leukemia cells were exposed to either 5 μM BRD7116 or DMSO vehicle for 6 hours in suspension in IMDM (12440053, Invitrogen) with 10% FBS, 10 ng/ml mIL3, and 1× Pen-Strep.
RNA was isolated using a trizol-chloroform protocol or with a Qiagen RNeasy kit (74104, Qiagen). Total RNA from the samples was normalized to 20 ng/μl and the Illumina® TotalPrep™-96 RNA Amplification Kit (Applied Biosystems, PN #4393543) protocol was used for amplification in a semi automated process. The total RNA underwent reverse transcription to synthesize first-strand cDNA. This cDNA was then converted into a double-stranded DNA template for transcription. In vitro transcription synthesized aRNA and incorporated a biotin-conjugated nucleotide. […] Illumina's BeadArray Reader was used to measure the fluorescence intensity at each addressed bead location.
Gene-expression profiles were generated by using mouse ref-8 DNA microarray (Illumina) according to manufacturer's instruction. […] The resulting data was analyzed using Gene Set Enrichment Analysis method (Subramanian, A., Tamayo, P., Mootha, V. K., Mukherjee, S., Ebert, B. L., Gillette, M. A., Paulovich, A., Pomeroy, S. L., Golub, T. R., Lander, E. S., et al. (2005). Proc Natl Acad Sci USA 102, 15545-15550.). […]

[2] = test system: LSC (dsRed+); assay: Stromal pretreatment of primary MSC stroma, triple coculture, leukemia cells; conditions: stroma pretreated three days, LSCs and HSPCs comingled
Protocol: In the context of primary MSC stroma (uncolored), both HSPCs (from actin-GFP mice (000329, Jackson Lab)) and LSC (dsRed+) populations were comingled together in a ratio of 2:1 within the same 384format wells. As in the stromal pretreatment screen with OP9 stroma, BRD7116 was added for three days to the stroma prior to the addition of the hematopoietic populations. 5 days after compound addition, wells were imaged in the red and green channels and total cells were counted using MetaXpress software from MDC.
This experiment was also performed in the context of primary MSC stroma. Both HSPCs and LSC populations were comingled together in the same wells, as a “triple” coculture.

[3] = test system: leukemic cobblestoning on pretreated OP9 stromal cells; assay: Stromal pretreatment screen on OP9 stroma; conditions: compound on OP9 stroma for 3 days, washed before LSC plating
Protocol: OP9 cells were plated as in the primary screen. 24 hours later compounds were added to the stromal cultures and the plates were incubated for three days. […] As before, the plates were imaged after 6 days of coculture, and the level of cobblestoning was quantified. Any inhibition of cobblestoning observed under these modified assay conditions would presumably be due to the activity of the compound on the niche, and would allow the analysis of cell non-cell-autonomous mechanisms of leukemia growth inhibition.

[4] = test system: leukemia cells on OP9 cells; assay: Coculture pulse treatment experiment; conditions: 24 hours at Day 1 or Day 4 post LSC plating
Protocol: (§1) 13,500 GFP+ OP9 cells were plated onto gelatin coated, 96 well black, clear bottom plates (3904, Corning). 24 hours later, 2,000 sorted leukemia cells were plated onto the monolayer. Compounds (5 μM) were added either 1 (early pulse) or 4 (late pulse) days later at the same 5 μM working concentration of main coculture screen. In both cases, compounds were removed after 24 hours of treatment, the wells were washed, and fresh media without compound was added. The plates were imaged and analyzed 6 days after leukemia cell plating. The viability of the stroma was assessed using stromal monolayers grown alone and treated in parallel, with the same readout described in the stromal toxicity screen above.

[5] = test system: OP9 stromal monolayers; assay: Stromal viability in pulse treatment experiment (CellTiter-Glo); conditions: compared to DMSO control
Protocol: OP9 or MSCs were plated in white, 384 well plates (3570, Corning) and 24 hours later compounds were added in 8-point dose as described. Three days later the plates were put out to cool to room temperature, the cultures were aspirated, and 50 μl of CellTiterGlo reagent (G7570, Promega) diluted 1:3 in PBS was added to each well. The plates were covered and placed on an orbital shaker for 20 minutes then analyzed using either an LJL Analyst (LJL) or Envision (Perkin Elmer).
as §1

Compound | gene expression changes (GSEA) [1] | leukemia cells on pretreated MSC stroma [2] | leukemic cobblestoning after stromal pretreatment [3] | leukemia cells at Day 6 endpoint after 24 hour pulse [4] | leukemia cells at Day 6 endpoint after 24 hour pulse ([4]; listed as lovastatin) | stromal viability after 24 hour pulse (CellTiter-Glo) [5]
CC1(C)C(C(=O)Nc2ccc(S(=O)(=O)c3ccc(NC(=O)C4C(C)(C)C4(C)C)cc3)cc2)C1(C)C [BRD7116] | induces an AML differentiation program; also recorded: induction of an AML differentiation program | selective inhibition of the leukemia cells; also recorded: an inhibition of the leukemia cells was observed | decreased leukemic cobblestoning; also recorded: partially recapitulated the leukemia cobblestone inhibition | – | – | –
CCC(C)C(=O)OC1CC(C)C=C2C=CC(C)C(CCC(O)CC(O)CC(=O)O)C21 (stereo not drawn) [Lovastatic acid] | – | – | – | strong inhibition of leukemia cells | near-complete loss of leukemia cells | no effect on stromal viability
